What was measured:
adjuvant arthritis rats [1] = test: Suppression of adjuvant arthritis, Example 5 (left hind leg volume, water displacement); assay type: in vivo, Lewis rats; settings: average of 4 rats
Method: (§1) Fifty microliters of an incomplete Freund's adjuvant solution (DIFCO) containing 6 mg/mL of M. Butyricum Dessicated (DIFCO) was subcutaneously injected into the left hind paw of 7-week-old Lewis rats, weighing 130 to 160 g, under anesthesia with ether. The animals were divided into groups so that there is no significant difference in the volume of the left hind leg between the groups. 14 days after administration of M. Butyricum, one group was intravenously administered a single dose of the nanoparticles of the present invention encapsulating betamethasone phosphate (equivalent to 50 μg betamethasone). As controls, other groups were intravenously administered the same amount of an aqueous betamethasone phosphate solution or the PLA nanoparticles encapsulating betamethasone phosphate (nanoparticles described in Example 2 of International Patent Publication No. WO 2004/84871), each administered in a single dose.
(§2) The ability of the nanoparticles to suppress arthritic inflammation was analyzed by the water displacement technique by measuring the volume of the left hind legs before and after the administration of the nanoparticles.
(§3) Inflammation rate shown in Table 6 was determined with respect to the leg volume of the control group (=100) and calculated by the following equation: Inflammation rate(%)=(measured leg volume−leg volume without adjuvant)/(initial leg volume−leg volume without adjuvant)×100
Each inflammation rate is the average of 4 rats.

adjuvant arthritis rats [2] = test: Suppression of adjuvant arthritis, Example 9 (left hind leg volume, water displacement); assay type: in vivo, Lewis rats; settings: average of 7 rats
Method: as §1, §2, §3
As in Example 5, the ability of nanoparticles to suppress adjuvant arthritis was evaluated. Each inflammation rate is the average of 7 rats. Nanoparticles of the present invention containing betamethasone phosphate equivalent to 40 μg betamethasone were intravenously administered in a single dose.
As a control, another group of rats was intravenously administered the same amount of an aqueous solution of betamethasone phosphate in a single dose.

## C[C@H]1C[C@H]2[C@@H]3CCC4=CC(=O)C=C[C@]4(C)[C@@]3(F)[C@@H](O)C[C@]2(C)[C@@]1(O)C(=O)COP(=O)(O)O [betamethasone phosphate]
Adjuvant arthritis rats [1]; 1 day after single i.v. dose equivalent to 50 μg betamethasone
  Inflammation rate: 83%
Adjuvant arthritis rats [1]; 2 days after single i.v. dose equivalent to 50 μg betamethasone
  Inflammation rate: 80%
Adjuvant arthritis rats [1]; 3 days after single i.v. dose equivalent to 50 μg betamethasone
  Inflammation rate: 82%
Adjuvant arthritis rats [1]; 4 days after single i.v. dose equivalent to 50 μg betamethasone
  Inflammation rate: 83%
Adjuvant arthritis rats [1]; 6 days after single i.v. dose equivalent to 50 μg betamethasone
  Inflammation rate: 84%
Adjuvant arthritis rats [1]; 8 days after single i.v. dose equivalent to 50 μg betamethasone
  Inflammation rate: 81%
Adjuvant arthritis rats [2]; 1 day after single i.v. dose equivalent to 40 μg betamethasone
  Inflammation rate: 81%
Adjuvant arthritis rats [2]; 2 days after single i.v. dose equivalent to 40 μg betamethasone
  Inflammation rate: 83%
Adjuvant arthritis rats [2]; 3 days after single i.v. dose equivalent to 40 μg betamethasone
  Inflammation rate: 83%
Adjuvant arthritis rats [2]; 4 days after single i.v. dose equivalent to 40 μg betamethasone
  Inflammation rate: 78%
Adjuvant arthritis rats [2]; 5 days after single i.v. dose equivalent to 40 μg betamethasone
  Inflammation rate: 78%
Adjuvant arthritis rats [2]; 7 days after single i.v. dose equivalent to 40 μg betamethasone
  Inflammation rate: 79%
Adjuvant arthritis rats [2]; 9 days after single i.v. dose equivalent to 40 μg betamethasone
  Inflammation rate: 79%
